Laboratory results reported in PubChem BioAssay AID712 (Emory University Molecular Libraries Screening Center, 2007).
Active and inactive are the calls of the source. How the calls were made is not given here.

biological target: Heat shock protein HSP 90-alpha (Homo sapiens) (UniProt P07900); test: Hsp90 blockade concentration-response – dose response (AID 712); conditions: Hsp90 inhibition assay

Structure (SMILES) | IC50
CCOC(=O)Cc1c[nH]c2ccc(N)cc12 | > 50 µM (inactive)
Nc1cc(N)nc(SCC(=O)Nc2nonc2N)n1 | > 50 µM (inactive)
Cc1cccc(NC(=O)Cn2nnc(-c3cccs3)n2)c1C | > 50 µM (inactive)
CCSCCOC(=O)C1=C(C)NC(=O)NC1c1ccccc1 (centres undefined) | > 50 µM (inactive)
Cc1nc(SCC(=O)c2ccc(O)cc2O)n[nH]1 | > 50 µM (inactive)
Nc1ccc2[nH]ccc2c1 | > 50 µM (inactive)
CCn1c(CSc2nnc(-c3cccnc3)n2-c2ccccc2C)nc2cc(C(=O)O)ccc21 | 0.679 µM
N#CCSc1nnc2[nH]c(=O)cc(N)n12 | > 50 µM (inactive)
O=C(c1sc2ccccc2c1Cl)N(Cc1ccco1)C1CCS(=O)(=O)C1 (centres undefined) | > 50 µM (inactive)
Oc1ccc2ccccc2c1C=NC12CN3CCN(CN(C3)C1)C2 | 6.41 µM
COc1ccc(S(=O)(=O)N(C)CC(=O)N2CCC(C(N)=O)CC2)cc1Cl | > 50 µM (inactive)
O=[N+]([O-])c1cc(O)cc2cccnc12 | 1.56 µM
CC(=O)Nc1cnc2ccccc2n1 | inactive
CCCCCC(=O)N1CC2(C)CN(C(=O)CCCCC)CC(C)(C1)C2=O | > 50 µM (inactive)

Second part, the compound after the results:

IC50 | Structure (SMILES)
> 50 µM (inactive) | Cn1c(=O)c2c(nc(NCc3ccc4c(c3)OCO4)n2C)n(C)c1=O
> 50 µM (inactive) | Nc1cccc(S(=O)(=O)Nc2ccc(O)c(-c3ccccc3O)c2)c1
> 50 µM (inactive) | O=C(COc1ccccc1Cl)c1ccc(O)cc1O
inactive | Cc1ccc(CNc2ccc(O)cc2)cc1
> 50 µM (inactive) | Cc1ccc(S(=O)(=O)Nc2ccc(O)c(-c3ccccc3O)c2)cc1
> 50 µM (inactive) | O=[N+]([O-])c1cccc(S(=O)(=O)Nc2ccc(O)c(-c3ccccc3O)c2)c1
> 50 µM (inactive) | O=C(OC1CCc2ccccc2C1=O)c1ccccc1O (centres undefined)
> 50 µM (inactive) | O=C1c2cccnc2C(=O)N1Cc1ccc2c(c1)OCO2
> 50 µM (inactive) | CCOc1ccc2ccccc2c1-c1cc(NS(=O)(=O)c2ccc(C)cc2)ccc1N
25.4 µM | COc1ccc(C2=NO[C@@H]3C(=O)N(c4c(C)cccc4C)C(=O)[C@H]23)cc1OC
inactive | Cc1ccccc1Nc1cc2ccccc2c(=O)[nH]1
16 µM | CCOc1ccc(S(=O)(=O)Nc2ccc3c(c2)OCO3)c2cccnc12
25 µM | N#Cc1cc(S(=O)(=O)Nc2ccc(F)c(-c3c(O)ccc4c3OCO4)c2)ccc1F
> 50 µM (inactive) | Cc1ccc(OC(=O)c2ccc(N)cc2O)cc1
> 50 µM (inactive) | COc1ccc2c(c1-c1cc(NS(=O)(=O)c3cc(Cl)ccc3Cl)ccc1N)OCO2
